Measured values from the supplement of paper PMC10307832.

Experiments:
Assay in all cases: relative viability (nuclei count vs DMSO), 5 days (fraction); higher = more cells survive
[1] = compound: C1COCCN1C2=CC(=O)C3=C(O2)C(=CC=C3)C4=CC=CC5=C4SC6=CC=CC=C56
How it was run: (§1)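 Viability here means nuclei in treated wells divided by nuclei in vehicle wells, reported as the median across plates. Only plates with control CV below 25% and at least one doubling passed. Lung cancer cell lines in 1536-well plates were exposed to five √10-spaced library-drug doses for 5 days and counted from 4× Hoechst images in MetaXpress.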

[2] = compound: CCN(CC)CCCCNc1ncc2cc(-c3cc(OC)cc(OC)c3)c(NC(=O)NC(C)(C)C)nc2n1
How it was run: as §1

PRIMA-1MET = compound: COCC1(CO)C(=O)C2CCN1CC2 [PRIMA-1MET]
How it was run: as §1

Zibotentan = compound: COc1nc(C)cnc1NS(=O)(=O)c1cccnc1-c1ccc(-c2nnco2)cc1 [Zibotentan]
How it was run: as §1

[3] = compound: O=c1cc(-c2cccc3c2Sc2ccccc2S3)oc(N2CCOCC2)c1
How it was run: as §1

| Cell Line | relative viability ([1]; 0.01 µM) | relative viability ([1]; 0.03162 µM) | relative viability ([1]; 0.1 µM) | relative viability ([1]; 0.3162 µM) | relative viability ([1]; 1 µM) | relative viability ([2]; 0.01 µM) | relative viability ([2]; 0.03162 µM) | relative viability ([2]; 0.1 µM) | relative viability ([2]; 0.3162 µM) | relative viability ([2]; 1 µM) | relative viability (PRIMA-1MET; 0.2 µM) | relative viability (PRIMA-1MET; 0.6325 µM) | relative viability (PRIMA-1MET; 2 µM) | relative viability (PRIMA-1MET; 6.325 µM) | relative viability (PRIMA-1MET; 20 µM) | relative viability (Zibotentan; 0.08 µM) | relative viability (Zibotentan; 0.253 µM) | relative viability (Zibotentan; 0.8 µM) | relative viability (Zibotentan; 2.53 µM) | relative viability ([3]; 0.08 µM) | relative viability ([3]; 0.253 µM) | relative viability ([3]; 0.8 µM) | relative viability ([3]; 2.53 µM) | relative viability ([3]; 8 µM) |
| --- | --- | --- | --- | --- | --- | --- | --- | --- | --- | --- | --- | --- | --- | --- | --- | --- | --- | --- | --- | --- | --- | --- | --- | --- |
| NCI-H1792 | 0.939 | 0.99 | 0.908 | 0.91 | 0.868 | 0.979 | 0.976 | 1.04 | 1.25 | 0.521 | 0.923 | 0.804 | 0.677 | 0.924 | 0.778 | 0.998 | 0.763 | 0.879 | 0.943 | 0.904 | 1.06 | 0.783 | 0.864 | 0.863 |
| NCI-H1793 | 0.888 | 0.786 | 0.918 | 0.896 | 0.806 | 0.903 | 0.933 | 1.03 | 0.944 | 0.683 | 0.936 | 0.815 |  | 1.08 | 0.923 | 0.938 | 0.862 | 0.801 | 1.03 | 0.819 | 1.3 | 0.857 | 0.771 | 0.805 |
| NCI-H1915 | 1.04 | 1.08 | 1.06 | 0.995 | 1.05 | 1.08 | 1.04 | 1.02 | 1.12 | 1.01 | 0.954 | 0.859 | 0.734 | 1 | 0.957 | 1.06 | 0.986 | 0.973 | 1.01 | 0.988 | 1.02 | 1.13 | 0.993 | 1.04 |
| NCI-H1944 | 1 | 1.01 | 1.02 | 0.997 | 0.949 | 0.945 | 0.875 | 1.06 | 0.985 | 0.894 | 1.06 | 0.782 | 0.695 | 0.927 | 0.924 | 1.07 | 0.94 | 0.874 | 1.01 | 0.938 | 1.09 | 0.905 | 0.752 | 1.09 |
| NCI-H1975 | 0.941 | 0.985 | 0.866 | 0.97 | 1.04 | 0.993 | 0.87 | 1.01 | 1.2 | 0.882 | 1.05 | 0.937 | 0.847 | 1.04 | 0.753 | 0.966 | 0.882 | 0.892 | 1.01 | 0.907 | 1.12 | 0.836 | 0.936 | 0.966 |
| NCI-H1993 | 0.882 | 0.931 | 1.1 | 0.995 | 0.84 | 0.976 | 0.924 | 1.05 | 1.45 | 0.901 | 1 | 0.767 | 0.824 | 0.92 | 0.955 | 0.966 | 0.871 | 0.913 | 1.04 | 0.84 | 1.05 | 0.846 | 0.824 | 0.826 |
| NCI-H2009 | 1.02 | 0.995 | 1.01 | 0.982 | 0.927 | 1.05 | 1.06 | 1.04 | 1.07 | 0.979 | 0.944 | 0.976 | 1.03 | 1.04 | 0.0681 | 1 | 0.968 | 1.07 | 1.06 | 0.987 | 1.03 | 0.962 | 0.93 | 0.869 |
| NCI-H2023 | 1.05 | 1.1 | 1.04 | 0.973 | 0.908 | 0.914 | 1.09 | 1.16 | 1.05 | 0.854 | 1.3 | 0.888 | 0.955 | 0.97 | 0.826 | 1.06 | 0.794 | 0.899 | 1 | 0.923 | 1.12 | 0.972 | 0.865 | 0.888 |
| NCI-H2085 | 0.986 | 0.961 | 0.97 | 0.974 | 0.966 | 1.03 | 0.987 | 0.99 | 1.02 | 0.972 | 1.06 | 1 | 0.791 | 1.05 | 0.524 | 1.01 | 0.954 | 1.05 | 1.03 | 0.95 | 1.1 | 1.05 | 0.96 | 0.892 |
| NCI-H2087 | 1.11 | 1.08 | 1.01 | 0.977 | 1.05 | 1.02 | 0.966 | 1.16 | 1.03 | 0.942 | 0.687 | 0.883 | 0.912 | 1.17 | 0.773 | 0.934 | 1.02 | 1.16 | 1.05 | 0.958 | 1.15 | 1.12 | 0.835 | 1.13 |
| NCI-H2126 | 0.972 | 1 | 1 | 1.01 | 0.98 | 1.02 | 0.992 | 1.06 | 1.07 | 0.983 | 1.03 | 0.978 | 0.901 | 1.03 | 0.978 | 1.01 | 0.965 | 0.913 | 1.05 | 0.986 | 1.03 | 0.862 | 0.932 | 1.03 |
| NCI-H2170 | 0.969 | 1.02 | 0.973 | 0.947 | 0.965 | 1.08 | 0.976 | 1.02 | 1.05 | 1 | 1.02 | 0.848 | 0.971 | 1.07 | 0.946 | 0.997 | 0.992 | 0.968 | 1 | 0.946 | 1.05 | 1 | 0.911 | 0.991 |
| NCI-H2228 | 1.25 | 0.89 | 0.981 | 0.821 | 1.03 | 0.984 | 1.06 | 1.26 | 1.16 | 0.941 | 0.99 | 0.964 | 1.07 | 1.06 | 0.0562 | 1.09 | 0.997 | 0.956 | 0.994 | 1.04 | 1.09 | 1.02 | 1.07 | 1.1 |
| NCI-H2342 | 1.01 | 1.04 | 0.955 | 0.959 | 0.875 | 0.932 | 0.899 | 0.971 | 1.09 | 1.06 | 1.07 | 1.05 | 0.693 | 0.974 | 0.915 | 0.937 | 0.945 | 0.944 | 0.942 | 0.836 | 1.07 | 0.964 | 0.982 | 1.04 |
| NCI-H2347 | 1.11 | 0.979 | 0.957 | 0.981 | 0.988 | 0.998 | 1.01 | 1.12 | 1.15 | 0.931 | 0.961 | 0.959 | 0.779 | 1.11 | 1.02 | 1.04 | 0.95 | 1.12 | 1.06 | 0.96 | 1.07 | 1.1 | 1.13 | 1.13 |
| NCI-H2405 | 1.03 | 0.906 | 1.03 | 1.1 | 0.958 | 0.988 | 1.03 | 1.13 | 1.08 | 0.982 | 0.881 | 0.972 |  | 0.952 | 0.509 | 1.06 | 0.942 | 1.03 | 1.09 | 0.958 | 0.998 | 0.979 | 0.878 | 1.14 |
| NCI-H3122 | 1.01 | 0.988 | 1.01 | 0.961 | 1.01 | 1.02 | 1.04 | 1.07 | 1.1 | 0.967 | 0.85 | 0.972 | 0.948 | 1.01 | 1 | 1.02 | 1.01 | 0.978 | 0.98 | 1.01 | 1.02 | 1.03 | 1.03 | 1.08 |
| PC-3 [JPC-3] | 0.965 | 1.01 | 0.91 | 1.03 | 0.977 | 1.1 | 1.02 | 1.12 | 1.23 | 0.911 | 1.16 | 1 | 0.997 | 1.07 | 0.997 | 1.06 | 0.979 | 1.05 | 1.06 | 0.99 | 1.05 | 1.02 | 0.943 | 1.08 |
| PC-14 | 0.936 | 0.993 | 0.981 | 1.09 | 0.971 | 1.09 | 1.06 | 1.18 | 1.25 | 0.966 | 1.06 | 0.956 | 0.944 | 1.05 | 0.688 | 1.04 | 0.873 | 1.05 | 1.02 | 1.02 | 1.18 | 0.981 | 0.87 | 1.06 |
| RERF-LC-KJ | 0.992 | 0.974 | 1.03 | 0.949 | 0.956 | 1.02 | 1.11 | 1.04 | 1.06 | 0.978 | 1.11 | 1.01 | 1.06 | 1.12 | 0.952 | 1.02 | 0.925 | 0.904 | 1.03 | 0.932 | 1.09 | 1.03 | 0.968 | 0.929 |
| SK-LU-1 | 1.05 | 1.13 | 0.92 | 1.07 | 1.04 | 1.05 | 0.991 | 1.24 | 1.27 | 0.952 | 1.16 | 1.06 | 0.801 | 1.13 | 0.837 | 1.01 | 1.04 | 1.02 | 1.08 | 1.14 | 1.14 | 1.3 | 0.97 | 1.13 |
| SK-MES-1 | 1 | 1 | 0.999 | 0.988 | 0.934 | 1.09 | 1.07 | 1.08 | 1.08 | 1.01 | 1.1 | 1 | 0.993 | 1.09 | 0.98 | 1.01 | 0.911 | 0.955 | 1.07 | 1 | 1.16 | 0.927 | 0.933 | 0.928 |
| SW 900 | 0.793 | 0.811 | 0.721 | 0.942 | 0.853 | 0.907 | 1.11 | 0.804 | 1.02 | 0.717 | 0.984 | 0.757 | 0.637 | 0.804 | 0.0765 | 0.918 | 0.75 | 0.851 | 0.921 | 0.622 | 0.892 | 0.942 | 0.809 | 0.774 |
| SW 1573 | 0.981 | 0.998 | 0.985 | 0.952 | 0.938 | 0.932 | 1.01 | 1.09 | 1.02 | 0.906 | 1.11 | 0.787 | 0.87 | 0.246 | 0.0301 | 1.03 | 0.707 | 1.08 | 1.09 | 0.965 | 1.1 | 1 | 0.949 | 1.1 |
| UMC-11 | 0.986 | 0.952 | 0.982 | 1.02 | 0.989 | 1.03 | 0.915 | 1.01 | 1.01 | 0.98 | 1.05 | 0.887 | 0.848 | 0.97 | 0.944 | 1.01 | 1.01 | 0.951 | 0.978 | 0.998 | 1.18 | 1.09 | 0.916 | 1.25 |
